Source: patent publication US20240342116A1, “TARGETING SOX10+ BONE MARROW GLIAL CELLS FOR TREATING MYELOFIBROSIS” (The Trustees of Columbia University in the City of New York, priority 2023, published 2024)
“Also recorded” adds a separate entry of the source.

Tests used:
[1] = target: T1, alarmin complex (S100A8/A9) (Mus musculus, UniProt P31725); settings: reference 63; cited from earlier work
T1 sequence (P31725 2-113 limits assumed): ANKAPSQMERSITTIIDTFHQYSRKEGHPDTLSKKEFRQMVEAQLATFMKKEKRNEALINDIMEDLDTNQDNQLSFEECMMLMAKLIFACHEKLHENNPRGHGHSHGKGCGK

[2] = tested on: Sox10+ glial cells in the bone marrow; experiment: Bone marrow glial cell ablation (chemical sympathectomy) with 6-OHDA in the MPLW515L PMF model
[3] = tested on: Sox10+ glial cells / ErbB3+ glial cells; experiment: Use examples: treatment of a subject with myelofibrosis; settings: after one or more doses
Description: The subject is treated with a combined Jak inhibition and ErbB3 pathway inhibition, using, e.g., an antibody or antibody fragment agent which blocks ErbB3. […] The combined treatment targets both the hematopoietic compartment and the bone marrow niche.

Row | SMILES | PMF features [1] | depletion of Sox10+ glial cells in the bone marrow ([2]; 6-OHDA-treated mice) | body weight loss ([2]; 6-OHDA-treated mice, 50 mg/kg i.v. twice on alternating days) | bone marrow cellularity ([2]; MPLW515L PMF mice vs vehicle) | liver size / weight ([2]; MPLW515L PMF mice vs vehicle) | spleen size / weight ([2]; MPLW515L PMF mice vs vehicle) | bone marrow fibrosis ([2]; MPLW515L PMF mice vs vehicle-treated control) | levels of active TGF-β in the bone marrow ([2]; bone marrow fluid, ELISA, MPLW515L PMF mice vs vehicle) | levels of active TGF-β in the serum ([2]; serum, ELISA, MPLW515L PMF mice vs vehicle) | symptom(s) of myelofibrosis [3]
1 | COc1cccc2c1c(O)c(C(=O)N(C)c1ccc(C(F)(F)F)cc1)c(=O)n2C [tasquinimod] | ameliorated |  |  |  |  |  |  |  |  | 
2 | NCCc1cc(O)c(O)cc1O [6-OHDA, 6-hydroxydopamine] |  | efficiently depleted | no significant body weight loss | significant increase | reduced; also recorded: decreased | reduced; also recorded: decreased | significantly reduced; also recorded: ameliorated | significantly reduced | without affecting | one or more improvements
